In US20240383908A1, “SYNTHESIS AND APPLICATION OF PHOSPHATASE DEGRADER” (HINOVA PHARMACEUTICALS INC., priority 2021, published 2024):

What follows are compounds tested against T1, SHP2 protein (Homo sapiens, UniProt Q06124) (assay: Degradation activity on SHP2 protein in MV-411 cells (Western blot, DC50)). Details: MV411 cells, 24 hours, read-out: Degradation activity for differenct cell lines MV411 (DC50).
T1 sequence (Q06124 1-593): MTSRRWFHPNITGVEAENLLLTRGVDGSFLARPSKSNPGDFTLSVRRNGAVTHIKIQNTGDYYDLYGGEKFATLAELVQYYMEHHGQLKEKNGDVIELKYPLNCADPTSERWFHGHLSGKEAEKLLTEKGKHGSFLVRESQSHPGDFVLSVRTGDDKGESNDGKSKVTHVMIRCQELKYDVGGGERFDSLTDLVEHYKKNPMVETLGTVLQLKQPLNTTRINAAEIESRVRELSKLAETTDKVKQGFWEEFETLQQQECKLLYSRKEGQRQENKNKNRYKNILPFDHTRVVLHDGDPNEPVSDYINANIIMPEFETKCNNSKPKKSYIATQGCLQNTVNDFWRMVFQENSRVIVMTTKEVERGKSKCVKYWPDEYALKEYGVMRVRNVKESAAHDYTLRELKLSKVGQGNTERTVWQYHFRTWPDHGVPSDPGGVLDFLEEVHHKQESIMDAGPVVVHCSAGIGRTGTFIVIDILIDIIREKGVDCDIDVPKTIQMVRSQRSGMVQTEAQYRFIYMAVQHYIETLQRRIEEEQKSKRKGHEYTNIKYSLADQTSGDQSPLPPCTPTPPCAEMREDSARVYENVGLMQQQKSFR
Type: cell-based
Parameters: endogenous in cells
Method: • MV-411 cell line (COBIER, CBP-60522) • FBS (GEMINI, Cat. No. 900-108) • 0.01M PBS (Biosharp, Cat. No. 162262) • IMDM (Hyclone, Cat. No. SH30228.01) • Penicillin-Streptomycin (Gibco, Cat. No. 15140122) • DMSO (Sigma, Cat. No. D5879) • Centrifuge Tube, 15 ml (Excell Bio, Cat. No. CS015-0001) • Cell Culture Dish, (WHB, Cat. No. CS016-0128) • 12-well cell culture cluster (Corning, Cat. No. 3513) • RIPA lysate buffer (Thermo, Cat. No. 89900) • Protein Loding Buffer (Beyotime, Cat. No. P0015L) • BCA Protein Assay Kit (EpiZyme, Cat. No. ZJ102) • SDS-PAGE Fast Preparation Kit (EpiZyme, Cat. No. PG112) • Anti-GAPDH (14C10) Rabbit mAb (CST, Cat. No. 2118L) • Anti-SHP2 rabbit mAb (CST, Cat. No. 37525) • Peroxidase Affinipure (HRP) Goat Anti-Rabbit IgG (Zen Bioscience, Cat. No. 511203) • TBST (Biosharp, Cat. No. BL601A) • ECL chemiluminescence kit (4A Biotech, Cat. No. 4AW011-200)
• (1) Cell culture medium: IMIDM medium+10% FBS+1% Pen Strep; • (2) PBS buffer: PBS powder was dissolved in 2 L of ultrapure water and sterilized; • (3) Cell lysate: RIPA lysate buffer is added with protease inhibitors at a ratio of 1:1000 before use.
(1) MV-411 cells were cultured in the cell culture medium, and then well-growing cells were selected and inoculated in a 12-well plate, with 1 mL/well and 1×10^6 cells/well. The plate was incubated overnight in a 5% CO2 cell incubator at 37° C.
(2) 10 mM storage solution of each drug was prepared using dimethylsulfoxide (DMSO). The stock solution was diluted gradually with DMSO before use, and then 1 μL of the compound solution was added to the cell culture well (to ensure that the DMSO concentration in the culture system was […]), so that the final drug concentration is 100 nM, 10 nM, 3 nM, 1 nM, 0.3 nM, and 0.1 nM. Two wells were set for each concentration. The plate was gently shaken and mixed. Additionally, negative control wells (containing an equal amount of DMSO) and positive control wells were included.
(3) After 24 hours of cultivation, the cells were lysed using RIPA cell lysate, and the proteins were extracted. The protein concentration was measured using a BCA assay kit. 5× concentrated protein buffer was loaded, heated at 100° C. for 5 min, and then the sample was stored at −20° C.
(4) For each well, 30 μg of protein was loaded to polyacrylamide gel for electrophoresis.
(5) The protein was transferred from polyacrylamide gel to PVDF membrane, and sealed at room temperature with 5% skimmed milk for 1 h, which was then incubated with the primary antibodies (Anti-SHP2 rabbit mAb and Anti-GAPDH rabbit mAb) at 4° C. overnight. The membrane was washed three times with TBST solution, 10 minutes for each time. After that, the membrane was incubated with the secondary antibodies (horseradish peroxidase labeled goat anti-rabbit IgG) at room temperature for 2 h, and then washed three times with TBST solution, 10 minutes for each time, followed by exposure.
(6) The images were analyzed with Image J grayscale, and the degradation ratio of protein bands in the test group was calculated, based on the negative control group (DMSO) (100%).
(7) Using the Dose-response-inhibition equation in the data processing software GraphPad Prism 8, the DC50 value was obtained (which represents the drug concentration corresponding to 50% degradation of the target protein).
Finally, ECL detection solution was added for color development, and photos were taken with an automatic chemiluminescence instrument, so as to collect images and analyze them.
For `CC1(N)CCN(c2cnc(Sc3cccc(NC(=O)CCCCCCCN4CC5(CCN(Cc6ccc(COc7cccc8c7CN(C7CCC(=O)NC7=O)C8=O)cc6)C5)C4)c3)cn2)CC1` (centres unmarked) [Compound 68], the DC50 was less than 100 nM. In the case of `CC1(N)CCN(c2cnc(Sc3cccc(NC(=O)CCN4CC5(CCN(Cc6ccc(COc7cccc8c7CN(C7CCC(=O)NC7=O)C8=O)cc6)C5)C4)c3)cn2)CC1` (centres unmarked) [Compound 69], the DC50 was greater than 1000 nM. Compound `CC1(N)CCN(c2cnc(Sc3cccc(NC(=O)CCCCCCCN4CC5(CCN(c6ncc(C(=O)NCc7ccc8c(c7)CN(C7CCC(=O)NC7=O)C8=O)cn6)C5)C4)c3)cn2)CC1` (centres unmarked) [Compound 70] has a DC50 of less than 100 nM. For `Cc1ncsc1-c1ccc([C@H](C)NC(=O)[C@@H]2C[C@@H](O)CN2C(=O)[C@@H](NC(=O)c2cnc(N3CCC4(CN(CCCCCCCC(=O)Nc5cccc(Sc6cnc(N7CCC(C)(N)CC7)cn6)c5)C4)C3)nc2)C(C)(C)C)cc1` [Compound 71], the DC50 was less than 100 nM. In the case of `CC1(N)CCN(c2cnc(Sc3cccc(NC(=O)CCCCCCCN4CCN(c5ncc(C(=O)NCc6ccc7c(c6)CN(C6CCC(=O)NC6=O)C7=O)cn5)CC4)c3)cn2)CC1` (centres unmarked) [Compound 72], the DC50 was less than 100 nM. `Cc1ncsc1-c1ccc([C@H](C)NC(=O)[C@@H]2C[C@@H](O)CN2C(=O)[C@@H](NC(=O)c2cnc(N3CCN(CCCCCCCC(=O)Nc4cccc(Sc5cnc(N6CCC(C)(N)CC6)cn5)c4)CC3)nc2)C(C)(C)C)cc1` [Compound 73] was tested, and the DC50 was less than 100 nM. In the case of `Cc1ncsc1-c1ccc([C@H](C)NC(=O)[C@@H]2C[C@@H](O)CN2C(=O)[C@@H](NC(=O)CCCCCCCCN2CCN(C(=O)C3CC3C(=O)Nc3cccc(Sc4cnc(N5CCC(C)(N)CC5)cn4)c3)CC2)C(C)(C)C)cc1` (some centres unmarked) [Compound 77], the DC50 was less than 100 nM. Compound `Cc1cc(C(=O)NCc2ccc3c(c2)CN(C2CCC(=O)NC2=O)C3=O)n(C2CCN(CCCCCCCCC(=O)Nc3cccc(Sc4cnc(N5CCC(C)(N)CC5)cn4)c3)CC2)n1` (centres unmarked) [Compound 80] has a DC50 of less than 100 nM. In the case of `CC1(N)CCN(c2cnc(Sc3cccc(NC(=O)CCCCCCCN4CC5(C4)CN(c4ccc(C(=O)NCc6ccc7c(c6)CN(C6CCC(=O)NC6=O)C7=O)nn4)C5)c3)cn2)CC1` (centres unmarked) [Compound 81], the DC50 was less than 100 nM. `Cc1ncsc1-c1ccc([C@H](C)NC(=O)[C@@H]2C[C@@H](O)CN2C(=O)[C@@H](NC(=O)c2cnc(N3CCN(CCCC(=O)Nc4cccc(Sc5cnc(N6CCC(C)(N)CC6)cn5)c4)CC3)nc2)C(C)(C)C)cc1` [Compound 82] showed a DC50 of less than 100 nM. `CC1(N)CCN(c2cnc(Sc3cccc(NC(=O)CCCN4CCN(c5ncc(C(=O)NCc6ccc7c(c6)CN(C6CCC(=O)NC6=O)C7=O)cn5)CC4)c3)cn2)CC1` (centres unmarked) [Compound 83] was tested, and the DC50 was greater than 1000 nM. Work on `CC1(N)CCN(c2cnc(Sc3cccc(NC(=O)CCN4CCN(Cc5ccc(COc6cccc7c6CN(C6CCC(=O)NC6=O)C7=O)cc5)CC4)c3)cn2)CC1` (centres unmarked) [Compound 84] yielded a DC50 greater than 1000 nM. `CC(=O)NC1(C)CCN(c2cnc(Sc3cccc(NC(=O)CCCCCCCCN4CCN(c5ncc(C(=O)NCc6ccc7c(c6)CN(C6CCC(=O)NC6=O)C7=O)cn5)CC4)c3)cn2)CC1` (centres unmarked) [Compound 85] showed a DC50 greater than 1000 nM. Compound `CC1(N)CCN(c2cnc(Sc3cccc(NC(=O)CCCCCCOC4CN(c5ncc(C(=O)NCc6ccc7c(c6)CN(C6CCC(=O)NC6=O)C7=O)cn5)C4)c3)cn2)CC1` (centres unmarked) [Compound 87] has a DC50 of less than 100 nM. `Cc1ncsc1-c1ccc([C@H](C)NC(=O)[C@@H]2C[C@@H](O)CN2C(=O)[C@@H](NC(=O)c2cnc(N3CCC4(CN(CCCCC(=O)Nc5cccc(Sc6cnc(N7CCC(C)(N)CC7)cn6)c5)C4)C3)nc2)C(C)(C)C)cc1` [Compound 88] showed a DC50 of less than 100 nM. In the case of `CC1(N)CCN(c2cnc(Sc3cccc(NC(=O)CCCCN4CC5(CCN(c6ncc(C(=O)NCc7ccc8c(c7)CN(C7CCC(=O)NC7=O)C8=O)cn6)C5)C4)c3)cn2)CC1` (centres unmarked) [Compound 89], the DC50 was less than 100 nM. `CC1(N)CCN(c2cnc(Sc3cccc(NC(=O)CCCCCCCOC4CCN(c5ncc(C(=O)Nc6cccc7c6CN(C6CCC(=O)NC6=O)C7=O)cn5)CC4)c3)cn2)CC1` (centres unmarked) [Compound 92] was tested, and the DC50 was greater than 1000 nM. `CC1(N)CCN(c2cnc(Sc3cccc(NC(=O)CCCCCCCOC4CCN(c5ncc(C(=O)Nc6ccc7c(c6)CN(C6CCC(=O)NC6=O)C7=O)cn5)CC4)c3)cn2)CC1` (centres unmarked) [Compound 93] was tested, and the DC50 was less than 100 nM. With `CC1(N)CCN(c2cnc(Sc3cccc(NC(=O)CCCCCCCOC4CCN(c5ncc(C(=O)Nc6ccc7c(c6)C(=O)N(C6CCC(=O)NC6=O)C7)cn5)CC4)c3)cn2)CC1` (centres unmarked) [Compound 94] the DC50 was greater than 1000 nM. For `CC1(N)CCN(c2cnc(Sc3cccc(NC(=O)CCCCCCCN4CC5CN(Cc6ccc(COc7cccc8c7CN(C7CCC(=O)NC7=O)C8=O)cc6)CC5C4)c3)cn2)CC1` (centres unmarked) [Compound 95], the DC50 was less than 100 nM. `CC1(N)CCN(c2cnc(Sc3cccc(NC(=O)CCN4CC5(CCN(c6ccc(C(=O)NCc7ccc8c(c7)CN(C7CCC(=O)NC7=O)C8=O)nn6)C5)C4)c3)cn2)CC1` (centres unmarked) [Compound 97] gave a DC50 greater than 1000 nM. For `Cc1ncsc1-c1ccc([C@H](C)NC(=O)[C@@H]2C[C@@H](O)CN2C(=O)[C@@H](NC(=O)c2ccc(N3CC4CN(CCCCCCCC(=O)Nc5cccc(Sc6cnc(N7CCC(C)(N)CC7)cn6)c5)CC4C3)nn2)C(C)(C)C)cc1` (some centres unmarked) [Compound 99], the DC50 was less than 100 nM. `Cc1ncsc1-c1ccc([C@H](C)NC(=O)[C@@H]2C[C@@H](O)CN2C(=O)[C@@H](NC(=O)c2ccc(N3CC[C@H](OCCCCCCCC(=O)Nc4cccc(Sc5cnc(N6CCC(C)(N)CC6)cn5)c4)C3)nn2)C(C)(C)C)cc1` [Compound 101] was tested, and the DC50 was less than 100 nM. `Cc1ncsc1-c1ccc([C@H](C)NC(=O)[C@@H]2C[C@@H](O)CN2C(=O)[C@@H](NC(=O)c2cnc(N3CC[C@@H](OCCCCCCCC(=O)Nc4cccc(Sc5cnc(N6CCC(C)(N)CC6)cn5)c4)C3)nc2)C(C)(C)C)cc1` [Compound 103] was tested, and the DC50 was less than 100 nM. Work on `CC1(N)CCN(c2cnc(Sc3cccc(NC(=O)CCCCCCCN4CC5(CCN(c6ccc(C(=O)NCc7ccc8c(c7)CN(C7CCC(=O)NC7=O)C8=O)nn6)C5)C4)c3)cn2)CC1` (centres unmarked) [Compound 106] yielded a DC50 of less than 100 nM. Compound `C[C@@H]1OCC2(CCN(c3cnc(Sc4cccc(NC(=O)CCN5CC6(CCN(c7ccc(C(=O)NCc8ccc9c(c8)CN(C8CCC(=O)NC8=O)C9=O)nn7)C6)C5)c4)cn3)CC2)[C@@H]1N` (some centres unmarked) [Compound 108] has a DC50 of less than 100 nM. For `C[C@@H]1OCC2(CCN(c3cnc(Sc4cccc(NC(=O)CCCCN5CC6(CCN(c7ccc(C(=O)NCc8ccc9c(c8)CN(C8CCC(=O)NC8=O)C9=O)nn7)C6)C5)c4)cn3)CC2)[C@@H]1N` (some centres unmarked) [Compound 109], the DC50 was less than 100 nM. Work on `C[C@@H]1OCC2(CCN(c3cnc(Sc4cccc(NC(=O)CCCCCCCN5CC6(CCN(Cc7ccc(COc8cccc9c8CN(C8CCC(=O)NC8=O)C9=O)cc7)C6)C5)c4)cn3)CC2)[C@@H]1N` (some centres unmarked) [Compound 113] yielded a DC50 greater than 1000 nM. In the case of `CC1(N)CCN(c2cnc(Sc3cccc(NC(=O)CCCCCCCN4CC5(C4)CN(C(=O)/C=C/C(=O)NCc4ccc6c(c4)CN(C4CCC(=O)NC4=O)C6=O)C5)c3)cn2)CC1` (centres unmarked) [Compound 114], the DC50 was greater than 1000 nM.
